# “Also recorded” adds a separate entry of the source. Bridge positions count the residues as written; N and C are the ends. Square brackets hold non-standard residues; d marks the D form. Peptide text beside a SMILES is read from it. R8 = C=CCCCCCC[C@@](C)(N)C(=O)O; S5 = C=CCCC[C@](C)(N)C(=O)O; Ahx = NCCCCCC(=O)O
# Tests used:
# p53 protein levels = experiment: p53 staining of spleens from p53 wild type mice after IP injection of peptide; format: in vivo; settings: normal p53 wild type mice, 40 mg/kg IP, spleens harvested 5 hours post injection, late- vs early-eluting isomer
# Description: FIG. 5. Spleen samples of wildtype-p53 mice harvested 5 hours after intraperitoneal injection with either DMSO (vehicle) or the early or late eluting isomer of stapled peptides VIP82, VIP115 or VIP116. […] A subset of the peptide analogues was subsequently assessed for their ability to stabilise p53 protein levels in proliferating cells. In particular, lysine-containing peptides were chosen due to their enhanced solubility in biological buffers. Normal p53 wild type mice were administered with either vehicle (DMSO) or 40 mg/kg of peptide via IP. Spleens were then harvested 5 hours post injection and histological samples were processed for p53 staining (FIG. 5).
# p53 stabilization = experiment: p53 IHC staining of spleen and tumour from C57BL/6 mice bearing B16F10 melanoma allograft; format: in vivo; settings: C57BL/6 mice with B16F10 melanoma allograft, 40 mg/kg intraperitoneal, harvested 6 hours post injection, listed as VIP116 late-eluting isomer
# Description: FIG. 6. Photomicrographs of (A) spleen and (B) tumour samples from C57BL/6 mice after treatment with DMSO vehicle or p53-stabilising stapled peptide isomers VIP116 (both early-eluting and late-eluting isomers) and ATSP-7041 (late-eluting isomer only).
# The stapled peptides VIP116 (both early-eluting and late-eluting isomers) and ATSP-7041 (late-eluting isomer) were injected into C57BL/6 mice bearing an allograft tumour (B16F10 melanoma cells) via intraperitoneal injection at a dose of 40 mg/kg. The spleen and tumour were both harvested from the mice 6 hours post injection. The p53 stabilization was detected and visualised in harvested tissue samples by p53 IHC staining (FIG. 6). A vehicle (2% DMSO in HBSS buffer) was used as a control.
structure (smiles),measurement,setting,value
CC(=O)N[C@@H](CCCCN)C(=O)N[C@@H](CCCCN)C(=O)N[C@@H](CCCCN)C(=O)NCCCCCC(=O)N[C@H](C(=O)N[C@@H](CO)C(=O)N[C@@H](Cc1ccccc1)C(=O)N[C@]1(C)CCCCCC/C=C/CCC[C@@](C)(C(=O)N[C@@H](CCC(=O)O)C(=O)N[C@@H](CC(N)=O)C(=O)N[C@@H](Cc2ccccc2)C(N)=O)NC(=O)[C@H](CC(C)C)NC(=O)[C@H](CC(C)C)NC(=O)[C@H](C)NC(=O)[C@H](Cc2c[nH]c3ccccc23)NC(=O)[C@H](Cc2ccc(O)cc2)NC(=O)[C@H](CCC(=O)O)NC1=O)[C@@H](C)O [VIP115-Late] (Ac-KKK[Ahx]TSF[R8]EYWALL[S5]ENF-NH2; staple (E) 8-15),p53 protein level / expression in spleen (p53 staining),"p53 protein levels; listed as VIP115 late eluting isomer, 40 mg/kg",higher in the late eluting isomer
same,p53 protein level / expression in spleen (p53 staining),"p53 protein levels; listed as VIP115 late-eluting isomer, 40 mg/kg",higher concentration of p53 in mouse tissues compared to the early-eluting isomer
CC(=O)N[C@@H](CCCCN)C(=O)N[C@@H](CCCCN)C(=O)NCCCCCC(=O)N[C@H](C(=O)N[C@@H](CO)C(=O)N[C@@H](Cc1ccccc1)C(=O)N[C@]1(C)CCCCCC/C=C/CCC[C@@](C)(C(=O)N[C@@H](CCC(=O)O)C(=O)N[C@@H](CC(N)=O)C(=O)N[C@@H](Cc2ccccc2)C(N)=O)NC(=O)[C@H](CC(C)C)NC(=O)[C@H](CC(C)C)NC(=O)[C@H](C)NC(=O)[C@H](Cc2c[nH]c3ccccc23)NC(=O)[C@H](Cc2ccc(O)cc2)NC(=O)[C@H](CCC(=O)O)NC1=O)[C@@H](C)O [VIP82-Late] (Ac-KK[Ahx]TSF[R8]EYWALL[S5]ENF-NH2; staple (E) 7-14),p53 protein level / expression in spleen (p53 staining),"p53 protein levels; listed as VIP82 late eluting isomer, 40 mg/kg",higher in the late eluting isomer
same,p53 protein level / expression in spleen (p53 staining),"p53 protein levels; listed as VIP82 late-eluting isomer, 40 mg/kg",higher concentration of p53 in mouse tissues compared to the early-eluting isomer
CC(=O)N[C@@H](CCCCN)C(=O)NCCCCCC(=O)N[C@H](C(=O)N[C@@H](CO)C(=O)N[C@@H](Cc1ccccc1)C(=O)N[C@]1(C)CCCCCC/C=C/CCC[C@@](C)(C(=O)N[C@@H](CCC(=O)O)C(=O)N[C@@H](CC(N)=O)C(=O)N[C@@H](Cc2ccccc2)C(N)=O)NC(=O)[C@H](CC(C)C)NC(=O)[C@H](CC(C)C)NC(=O)[C@H](C)NC(=O)[C@H](Cc2c[nH]c3ccccc23)NC(=O)[C@H](Cc2ccc(O)cc2)NC(=O)[C@H](CCC(=O)O)NC1=O)[C@@H](C)O [VIP116-Late],p53 activation response (p53 IHC staining) in spleen and tumour,p53 stabilization,higher p53 activation response in both spleen and tumour samples; also recorded: more potent than the late-eluting isomer of ATSP-7041
same,p53 protein level / expression in spleen (p53 staining),p53 protein levels,as active as the early-isomer
